Reference: US20040063696A1, “1,1-dioxo-2h-1,2-benzothiazine-3-carboxamide derivatives,method for preparing same and pharmaceutical compositions comprising same” (priority 2000, published 2004)

Test system: aggrecan
Assay: Expression of aggrecan in articular chondrocytes treated with IL-1 (Northern blot)
Type: cell-based
Conditions: calf articular chondrocytes, compared with cultures treated with 10 ng/ml of IL-1
Method: The expression of aggrecan was analysed by Northern blot. Total RNA of cultures of calf articular chondrocytes (CAC) cultured in DMEM+10% FCS and treated with different concentrations of the test compounds, in the presence of IL-1 (10 ng/ml), were extracted, 10 μg of the total RNA were fractionated by electrophoresis on a 1% agarose gel in the presence of an MOPS-formaldehyde buffer, transferred to a nylon membrane and hybridised with a specific aggrecan cDNA probe.

CC[N+](C)(CC)CCCNC(=O)C1=C(O)c2ccccc2S(=O)(=O)N1C.[I-] [Example 1, {3-[(4-Hydroxy-2-methyl-1,1-dioxo-2H-1,2-benzothiazin-3-yl)-carbonylamino]propyl}diethylmethylammonium iodide]
stimulation of the expression of aggrecan (10^−6 M): 150%
stimulation of the expression of aggrecan (10^−M (so in the source)): 200%
